Laboratory results reported in PMC7168207, “Dibasic Derivatives of Phenylcarbamic Acid as Prospective Antibacterial Agents Interacting with Cytoplasmic Membrane” (Antibiotics, 2020).
Values joined by “and” are separate entries in the source; they are usually repeats but may differ in a detail not shown here. Equal values may be shown once. Read-outs that look alike come from different tables or passages of the source.

Assays:
[1] = system: human monocytic leukemia THP-1 cells; assay: in vitro antiproliferative assay (WST-1); format: cell-based; details: THP-1 cells, WST-1, 24 h, read-out: Tox IC50
Description: The preliminary in vitro screening of the antiproliferative effect of the investigated compounds was performed using a Water Soluble Tetrazolium salts-1 (WST-1) assay kit and a human monocytic leukemia THP-1 cell line by means of the method described recently. The principle of the WST-1 assay kit is the […] mitochondrial dehydrogenases by antiproliferative compounds. The activity of this enzyme directly correlates with the number of metabolically active cells in the culture. The antiproliferative effect was evaluated as the IC50 value (the concentration of the compound causing 50% inhibition of cell proliferation).
Human monocytic leukemia THP-1 cells were used for in vitro antiproliferative assay. Cells were obtained from the European Collection of Cell Cultures (ECACC, Salisbury, UK) and routinely cultured in RPMI (Roswell Park Memorial Institute) 1640 medium supplemented with 10% fetal bovine serum, 2% L-glutamine, 1% penicillin, and streptomycin at 37 °C with 5% CO2. Cells were passaged at approximately one-week intervals. The antiproliferative activity of the compounds was determined using a Water Soluble Tetrazolium Salts-1 (WST-1, 2-(4-iodophenyl)-3-(4-nitrophenyl)-5-(2,4-disulfophenyl)-2H-tetrazolium) assay kit (Roche Diagnostics, Mannheim, Germany) according to the manufacturer’s instructions. The tested compounds were dissolved in DMSO and added in various compound concentrations to the cell suspension in the culture RPMI 1640 medium. The maximum concentration of DMSO in the assays never exceeded 0.1%. Subsequently, the cells were incubated at 37 °C with 5% CO2 for 24 h. For WST-1 assays, cells were seeded into 96-well plates (5 × 10^4 cells/well in 100 μL culture medium) in triplicate in serum-free RPMI 1640 medium, and measurements were taken 24 h after the treatment with the compounds. The median inhibition concentration values, IC50, were deduced through the production of a dose-response curve. All data were evaluated using GraphPad Prism 5.00 software (GraphPad Software, San Diego, CA, USA).

[2] = system: methicillin-resistant S. aureus SA 3202; assay: MIC, broth microdilution; format: cell-based, Staphylococcus aureus; details: MRSA3 = SA 3202; for MIC: read-out: MICs
Description: (§1) The modified broth microdilution method was used for in vitro evaluation of minimum inhibitory concentration. A small portion of bacterial colony cultivated overnight onto nutrient agar (Oxoid, Basingstoke, UK) with 5% bovine blood was suspended in sterile phosphate-buffered saline to get cell density 0.5 McFarland. This inoculum was diluted to reach the final concentration of bacterial cells 5 × 10^5 CFU/mL in the wells. […] For plates with staphylococci, cation adjusted Mueller–Hinton (CaMH) broth (Oxoid) was used; enterococci were cultivated in brain heart infusion (BHI, Oxoid). […] A drug-free control and a sterility control were included. Inoculated plates were incubated in aerobic atmosphere at 37 °C overnight. […] After evaluation of MICs, 10 µL of aliquots from the wells were put onto Mueller–Hinton agar. The agar plates were cultivated at 37 °C for 24 h. The minimum bactericidal concentration (MBC) was defined as the lowest concentration of the compound that killed 99.9% of the bacteria compared to the starting inoculum.

[3] = system: S. aureus ATCC 29213; assay: MIC, broth microdilution; format: cell-based, Staphylococcus aureus
Description: as §1

[4] = system: methicillin-resistant S. aureus 63718; assay: MIC, broth microdilution; format: cell-based, Staphylococcus aureus; details: MRSA1 = S. aureus 63718; for MIC: read-out: MICs
Description: as §1

[5] = system: methicillin-resistant S. aureus SA 630; assay: MIC, broth microdilution; format: cell-based, Staphylococcus aureus; details: MRSA2 = SA 630; for MIC: read-out: MICs
Description: as §1

[6] = system: vancomycin-resistant enterococci VRE 368; assay: MIC, broth microdilution; format: cell-based, Enterococcus faecalis; details: VRE2 = VRE 368; for MIC: read-out: MICs
Description: as §1

[7] = system: vancomycin-resistant enterococci VRE 725B; assay: MIC, broth microdilution; format: cell-based, Enterococcus faecalis; details: VRE3 = VRE 725B; for MIC: read-out: MICs
Description: as §1

[8] = system: vancomycin-resistant enterococci VRE 342B; assay: MIC, broth microdilution; format: cell-based, Enterococcus faecalis; details: VRE1 = VRE 342B; for MIC: read-out: MICs
Description: as §1

[9] = system: E. faecalis ATCC 29212; assay: MIC, broth microdilution; format: cell-based, Enterococcus faecalis; details: EF = E. faecalis ATCC 29213
Description: as §1

[10] = system: S. aureus ATCC 29213 biofilm; assay: biofilm inhibition assay (crystal violet); format: cell-based, Staphylococcus aureus; details: ≥80% inhibition of biofilm formation; for MBIC80 (minimum biofilm inhibitory concentration): 48 h
Description: (§2) The ability of compounds 1f, 1g, and 1h to inhibit biofilm growth and destroy the matured biofilm of S. aureus ATCC 29213 was investigated. The inhibitory activity was studied by the method with crystal violet. The activity to disrupt matured biofilm was evaluated as a decrease of metabolic activity using the MTT assay.
The plates were inoculated by inoculum of S. aureus ATCC 29213 grown in TSB + 2% glucose to exponential phase. Before the inoculation of the plate, the original inoculum was diluted to 1 McFarland and then 1:100 in fresh TSB + 2% glucose, to reach the final concentrations in the wells of […]. […] The plates were incubated at 37 °C for 48 h. After incubation, the contents of the wells were removed, and the plates were washed three times by sterile PBS. After drying, 125 μL of 0.5% crystal violet was added to each well and the plates were stained at room temperature for 20 min. Then the dye was removed, and the plates were washed three times by sterile PBS. The colored biofilm was detached from the wells using 33% solution of acetic acid. The absorbance at 595 nm was measured. As a blank, a non-inoculated plate treated in the same way was used. […] The minimum biofilm inhibitory concentration was the lowest concentration of the compounds, which inhibited the growth of 80% bacteria compared to the growth control. The experiment was made in duplicate and repeated at least three times.

[11] = system: S. aureus ATCC 29213 biofilm; assay: biofilm susceptibility / eradication of preformed biofilm (MTT); format: cell-based, Staphylococcus aureus; details: for MBEC80 (minimum biofilm eradication concentration): 80% reduction of metabolic activity of preformed biofilm, 24 h
Description: as §2
Biofilms were grown as described above but without the presence of the compounds. After 48 h of incubation at 37 °C, the contents of the wells were removed, and the plates were washed three times by sterile PBS. After washing, 100 µL of tested compounds in CaMH were added to the wells. […] A growth control containing 2.5% of DMSO in CaMH was included. The plates were incubated at 37 °C for 24 h, then the solutions of compounds were removed, and the plates were gently washed three times by sterile PBS. Bacterial viability was analyzed using 100 µL of 0.05 mg/mL MTT (3-(4,5-dimethylthiazol-2-yl)- 2,5-diphenyltetrazolium bromide) in PBS in each well. The plates with MTT were incubated at 37 °C for 1–2 h in darkness, until the blue formazan crystals appeared. MTT solution was removed and the plates were washed once by PBS. Crystals of formazan were dissolved using 17% sodium dodecysulphate in 40% dimethylformamid. The absorbance at 570 nm was measured and the percentage of eradication was counted according to the equation (3) % of eradication = 100 − OD570S/OD570C × 100 where OD570S is the absorbance of the sample at 570 nm and OD570C is the absorbance of the growth control at 570 nm. The minimum biofilm eradication concentration was the lowest concentration of the compound, which reduced the metabolic activity of the biofilm by 80% compared to the growth control. The experiment was made in duplicate and repeated at least three times.

[12] = system: VRE 725B; assay: synergy with antibiotics (FIC index, checkerboard); format: cell-based, Enterococcus faecalis; details: Enterococcus
From the text: (§3) Representatives from various classes were chosen in order to study the potential difference in synergistic activity according to the diverse mechanisms of action and resistance of these drugs. The method of minimal fractional inhibitory concentration (FIC) index (FICI) in a microtitration plate was used. FICI ≤ 0.5 means synergy; 0.5 < FICI < 1 means additivity; 1 ≤ FICI < 4 means indifference; and FICI ≥ 4 means antagonism.
The used VRE strains were isolated from American crows by Oravcova et al., and their genetic profiles were characterized. All the VRE strains were carrying genes vanA, tetM, and ermB. Strains VRE 368 and VRE 725B carried gene aac, which provided acquired aminoglycoside resistance.
(§4) For synergy effect study, a method of fractional inhibitory concentration was used. […] Raw H was used for the evaluation of MIC(A); column 12 was used for evaluation of MIC(B). The plate was inoculated by the bacterial suspension to reach final concentration of 5 × 10^5 CFU/mL in the wells. The fractional inhibitory concentration (FIC) index was calculated using the concentrations in the first nonturbid (clear) well found in each row and column along the turbidity/nonturbidity interface. To interpret the combined effect, the lowest FICI was used. A ΣFIC ≤ 0.5 means synergy; 0.5 < ΣFIC < 1 means additivity; 1 ≤ ΣFIC < 4 means indifference; and ΣFIC ≥ 4 means antagonism. The tests were made in duplicate, and the results were averaged.

[13] = system: VRE 342B; assay: synergy with antibiotics (FIC index, checkerboard); format: cell-based, Enterococcus faecalis; details: VRE 342B
From the text: as §3, §4

[14] = system: VRE 368; assay: synergy with antibiotics (FIC index, checkerboard); format: cell-based, Enterococcus faecalis; details: Enterococcus, VRE, VRE 368; tested compound/antibiotic; read-out: MIC of each antibacterial drug alone observed in the synergy experiment
From the text: as §3, §4

[15] = Staphylococcus aureus, ATCC29213, SA = S. aureus ATCC 29213, read-out: MICs
[16] = Staphylococcus aureus, ATCC29213, Table 7, planktonic cells of S. aureus ATCC 29213, read-out: MIC
[17] = Enterococcus faecalis, ATCC 29212 / ATCC 29213

Row | Molecule | MIC ([2]; Staphylococcus aureus) | MIC [3, 15] | MIC [3, 16] | MIC ([4]; Staphylococcus aureus) | MIC ([5]; Staphylococcus aureus) | MIC ([6]; Enterococcus) | MIC ([7]; Enterococcus) | MIC ([8]; Enterococcus) | MIC [9, 17] | IC50 ([1]; Homo sapiens, THP-1, 24 h) | MBIC80 (minimum biofilm inhibitory concentration) [10] | MBEC80 (minimum biofilm eradication concentration) [11] | also measured
1 | CCCCCCCCCCCCCCCC[N+](C)(C)Cc1ccccc1 [CTC, cetalkonium chloride, reference compound] | 1 µg/mL and 2.53 µM | 0.25 µg/mL and 0.63 µM | 0.25 µg/mL | 0.25 µg/mL and 0.63 µM | 0.5 µg/mL and 1.26 µM | 0.5 µg/mL and 1.26 µM | 0.5 µg/mL and 1.26 µM | 0.5 µg/mL and 1.26 µM | 1 µg/mL and 2.53 µM | 1290 ± 70 nM | 0.25 µg/mL | >256 µg/mL | activity on preformed biofilm [11]: did not show any activity on preformed biofilm
2 | CNC(C)C1CCC(N)C(OC2C(N)CC(N)C(OC3OCC(C)(O)C(NC)C3O)C2O)O1 (centres unmarked) [GEN, gentamicin, reference compound] | – | – | – | – | – | – | – | – | – | – | – | – | MIC [12]: > 2000 µg/mL; MIC ([13]; Enterococcus, tested compound/antibiotic, read-out: MIC of each antibacterial drug alone observed in the synergy experiment): 32 µg/mL; concentrations of the tested compound/clinically used antibiotic providing additivity or synergy ([13]; in the combination of that line): 8 µg/mL; MIC [14]: 64 µg/mL
3 | carbethopendecinium bromide [CRB, reference compound] | – | – | – | – | – | – | – | – | – | – | 0.25 µg/mL | 64 µg/mL | IC50 [1]: 1730 ± 80 nM; MICs [2]: 2 µg/mL; MIC [2]: 4.73 µM; MICs ([3]; SA = S. aureus ATCC 29213): 0.25 µg/mL; MIC ([3]; SA = S. aureus ATCC 29213, read-out: MICs): 0.59 µM; MIC ([3]; Table 7, planktonic cells of S. aureus ATCC 29213): 0.25 µg/mL; MICs [4]: 0.25 µg/mL; MIC [4]: 0.59 µM; MICs [5]: 0.5 µg/mL; MIC [5]: 1.18 µM; MICs [6]: 0.25 µg/mL; MIC [6]: 0.59 µM; MICs [7]: 0.5 µg/mL; MIC [7]: 1.18 µM; MICs [8]: 0.5 µg/mL; MIC [8]: 1.18 µM; MIC [9]: 1.18 µM; MICs [9]: 0.5 µg/mL; minimum biofilm inhibitory concentration relative to MIC against planktonic cells [10]: comparable to its MIC

The next lines start with results.

Row | MIC ([2]; Staphylococcus aureus) | MIC [3, 15] | MIC [3, 16] | MIC ([4]; Staphylococcus aureus) | MIC ([5]; Staphylococcus aureus) | MIC ([6]; Enterococcus) | MIC ([7]; Enterococcus) | MIC ([8]; Enterococcus) | MIC [9, 17] | Molecule | IC50 ([1]; Homo sapiens, THP-1, 24 h) | MBIC80 (minimum biofilm inhibitory concentration) [10] | MBEC80 (minimum biofilm eradication concentration) [11] | also measured
4 | > 256 µg/mL and > 1080 µM | > 256 µg/mL and > 1080 µM | > 256 µg/mL | > 256 µg/mL and > 1080 µM | > 256 µg/mL and > 1080 µM | > 256 µg/mL and > 1080 µM | > 256 µg/mL and > 1080 µM | > 256 µg/mL and > 1080 µM | > 256 µg/mL and > 1080 µM | CCN(CC)CCOC(=O)c1ccc(N)cc1 [PRC, procaine, reference compound] | > 300000 nM | >256 µg/mL | >256 µg/mL | –
5 | > 256 µg/mL and > 968 µM | > 256 µg/mL and > 968 µM | > 256 µg/mL | > 256 µg/mL and > 968 µM | > 256 µg/mL and > 968 µM | > 256 µg/mL and > 968 µM | > 256 µg/mL and > 968 µM | > 256 µg/mL and > 968 µM | > 256 µg/mL and > 968 µM | CCCCNc1ccc(C(=O)OCCN(C)C)cc1 [TEC, tetracaine, reference compound] | 224000 ± 6520 nM | >256 µg/mL | >256 µg/mL | –
